Results published in patent publication US20110123617A1, “CLIOQUINOL FOR THE TREATMENT OF HEMATOLOGICAL MALIGNANCIES” (priority 2007, published 2011).

How the values were obtained:
cyclin D2 promoter = experiment: High throughput screen for inhibitors of cyclin D2 transactivation (luciferase assay); type: cell-based, mouse; conditions: NIH 3T3 cells over-expressing c-maf, ~5 μM, sixteen hours
From the text: The promoter of cyclin D2 (−894 to −4), containing c-maf responsive element sequence (MARE), was cloned from HeLa cell genomic DNA and subcloned into the pGL2 luciferase reporter vector (Promega, Madison, Wis.). This construct was co-transfected with pcDNA3.1 containing a neomycin resistance gene into NIH3T3 wild type cells and NIH3T3 cells stably over-expressing c-maf-IRES-GFP. Cells stably expressing c-maf, GFP, and luciferase were selected for further application. NIH3T3 cells stably expressing c-maf and the cyclin D2 promoter driving luciferase (13,000 cells per well) were plated in 96-well plates by the Biomek FX liquid handler (Beckman, Fullerton, Calif.). The same workstation was used for plate formatting and reagent distribution. […] After incubation, cyclin D2 transactivation was assessed by the luciferase assay and viability was assessed by the MTS assay. Luciferase activity was assessed according to the manufacturer's instructions (Promega, Madison, Wis.). […] After 10 min incubation, an equal volume of Bright-Glo Luciferase substrate (Promega) was added and the luminescence signal was detected with a 96-well Luminoskan luminescence plate reader (Thermo Labsystem, Waltham, Mass.) with a 5 second integration. […] Sixteen hours after the addition of the compounds, luciferase expression was measured as a marker of cyclin D2 transactivation. […]

myeloma cell lines = experiment: Cell viability (MTS assay), myeloma cell lines; type: cell-based; conditions: 12/14 myeloma cell lines, forty-eight hours; read-out: IC50 (cell death)
Protocol: Cell viability of leukemia, myeloma, solid tumor and primary cells forty-eight hours after clioquinol treatment by MTS assay. Cell viability was assessed with the CellTiter96® Aqueous Non-Radioactive Assay kit according to manufactures' instructions (Promega). Apoptosis was measured by flow cytometry to detect cell surface Annexin V expression and propidium iodide (PI) uptake (Biovision, Mountain View, Calif., USA) as previously described (20) The inventors tested the effects of clioquinol on the viability of acute leukemia (n=7), myeloma (n=14), and solid tumor (n=5) cell lines as well as primary AML samples (n=6) and primary normal hematopoietic cells (n=3). Forty-eight hours after incubation, clioquinol induced cell death in 6/7 AML, 12/14 myeloma, 0/5 solid tumor, […] and 0/3 normal hematopoietic cells with an IC50 <20 μM (FIG. 5). Of note, after oral administration of clioquinol, trough serum concentrations of 20 μM can be achieved in patients (32).

cyclin D2 = experiment: Immunoblotting of cyclin D2 in myeloma and leukemia cells; type: cell-based; conditions: low micromolar concentrations
From the text: A) Effect of increasing concentrations of clioquinol on LP1 and MY5 multiple myeloma cells at twenty hours after clioquinol treatment; determined by SDS-PAGE immunoblotting. B) Effect of increasing concentrations of clioquinol on the G0/G1 ratio in AML3, U937, LP1 and MY5 cells at twenty hours after clioquinol treatment; determined by PI staining and flow cytometry. To prepare cytosolic extracts, NIH3T3 cells and myeloma cells were washed with phosphate-buffered saline (PBS, pH 7.4) and suspending in lysis buffer [10 mM Tris (pH 7.4), 150 mM NaCl, 0.1% Triton X-100, 0.5% sodium deoxycholate, and 5 mM EDTA] containing protease inhibitors (Complete tablets, Roche, Indianapolis, Ind.). Protein concentrations were determined by the Bradford assay. Immunoblot assays were performed by subjecting equal amounts of protein to SDS-PAGE gels followed by transfer to Nitrocellulose membranes. Membranes were probed with polyclonal rabbit anti-human cyclin D2 (0.5 μg/ml, both from Santa Cruz Biotech, Santa Cruz, Calif.), or monoclonal mouse-anti human p21 (1:200 v/v, Santa Cruz Biotech), monoclonal mouse-anti human p27 (1:2,500 v/v BD Transduction Laboratories), polyclonal mouse-anti human ubiquitin (1:2,000 v/v Calbiochem) and monoclonal mouse-anti-β-actin (1:10,000 v/v) (Sigma, St. Lois, Mo.). […] Detection was performed by the Enhanced Chemical Luminescence (ECL) method (Pierce, Rockford, Ill.).

In the case of `Oc1c(I)cc(Cl)c2cccnc12` [clioquinol, 5-chloro-7-iodo-8-hydroxyquinoline], the “cyclin D2 transactivation (luciferase expression)” value (cyclin D2 promoter) is reported as “c-maf independent inhibitors of the cyclin D2 promoter”, the IC50 (myeloma cell lines) is reported as less than 20 µM and the “levels of cyclin D2” value (cyclin D2) is reported as “reduced levels of cyclin D2”.
